From US11207424B2, “Methods and materials for increasing viral vector infectivity” (Mayo Foundation for Medical Education and Research, priority 2014, dated 2021) come the findings set out here.

The test system of assay [1] is HeLa cells. It is filed as cell-based. To be noted: for increase in relative luciferase activity: 48 hours p.i.
In assay [2] the test system is HeLa cells. The assay is described as follows: GFP-expressing single-stranded AAV9 or scAAV9 vector transduction of HeLa cells, flow cytometry. It is filed as cell-based. The note with it: AAV9 CMV-GFP or scAAV9 CMV-GFP, 20 nM at 8 hours p.i., 48 hours p.i. Here is the method: FIG. 20 contains flow cytometry data plotting the infectivity of GFP-expressing single-stranded AAV9 or self-complementary (sc) AAV9 vectors. HeLa cells were infected by AAV9 CMV-GFP or scAAV9 CMV-GFP vectors, followed by treatment with 20 nM meayamycin B at 8 hours p.i. Flow cytometry analysis was performed to observe GFP-positive cell populations at 48 hours p.i.
To understand the mechanism of U2 snRNP-mediated block of AAV vector transduction, the optimal timing of meayamycin B treatment in relationship to AAV infection was further assessed. Pretreatment with the drug was not needed in order for it to enhance AAV9 infection (FIG. 18). […] To further map the optimal timing of U2 snRNP inhibition for AAV vector transduction, AAV2 and AAV9 vector-infected HeLa cells were treated with 5 nM meayamycin B at various time points and duration, and luciferase activity was assessed at 3 days p.i. […] In contrast, the effects of meayamycin B on AAV vector transduction were impaired when drug was added either 24 or 48 hours p.i. (FIG. 19). Thus, optimal enhancement of AAV vector transduction involved initiation of U2 snRNP inhibition prior to 24 hours post AAV vector infection.

In assay [3] the test system is primary pancreatic islets. The experiment in a line: AAV8 CMV-GFP transduction of primary mouse pancreatic islets, live imaging. The format is cell-based, C57B1/6 mice. To be noted: 2 nM at 3 hours p.i., 48 and 72 hours p.i. As for the experimental part:
FIG. 21 contains photographs of murine islet cells exposed to AAV8-GFP vectors along with meayamycin (2 nM). Images of GFP expressing islets were taken at two and three days post infection.
(§1) The ability of meayamycin B to boost AAV transduction in various cell types, relevant to gene therapy applications, was also tested. First, primary pancreatic islets were isolated from 8 week-old C57B1/6 mice, which were then transduced with AAV8 CMV-GFP and treated with 2 nM meayamycin B 3 hours p.i. Cells were monitored by BioStation Live Imaging for three days. […] (FIG. 21). The effects of meayamycin B on primary human pancreatic islets were then tested. Cells were infected with AAV2 or AAV9 CMV-Luc vectors and treated with 0, 2, 5, or 20 nM meayamycin B at 7 hours p.i. When luciferase expression was monitored at 48 hours p.i., a dose-dependent increase in luciferase expression in AAV2 and AAV9 infected cells (up to 44- and 24-fold increases in AAV9 and AAV2 transduction) was observed (FIG. 22). The effects on neonatal rat cardiomyocytes were tested next. Primary cardiomyocytes were infected with AAV2 CMV-Luc, followed by 0, 2, or 10 nM meayamycin B treatments at 3 hours post infection for 3 days. […] (FIG. 23).

Assay [4] relates to primary human pancreatic islets. The assay is described as follows: AAV2 or AAV9 CMV-Luc transduction of primary human pancreatic islets, luciferase. It is filed as cell-based. The note with it: human islets, 0, 2, 5 or 20 nM at 7 hours p.i., 48 hours p.i. As for the experimental part:
FIG. 22 contains graphs plotting relative light units in human islet cells 48 hours post infection with an AAV2 or AAV9 vector and following treatment with the indicate amount of meayamycin at 7 hours post infection. Luciferase expression was analyzed 48 hours p.i.
as §1

Assay [5] relates to neonatal rat cardiomyocytes. The assay is described as follows: AAV2 CMV-Luc or scAAV9 CMV-GFP transduction of neonatal rat cardiomyocytes. It is filed as cell-based. As for the experimental part: FIG. 23 presents a graph plotting the relative luciferase activity and images of GFP-expressing cells in neonatal rat cardiomyocytes. Primary cardiomyocytes were infected with AAV2 CMV-Luc or scAAV9 CMV-GFP vectors and treated with meayamycin B, 3 hours p.i. Luciferase activity was measured 3 days p.i., while GFP expression was monitored at 5 days p.i.
as §1

In assay [6] the test system is primary porcine hepatocytes. The assay is described as follows: AAV2 or AAV9 CMV-Luc transduction of primary porcine hepatocytes, luciferase. To be noted: porcine hepatocytes, 0, 2 or 20 nM after 8 hours infection, 48 hours p.i. The format is cell-based. Here is the method:
FIG. 24 contains graphs plotting the relative luciferase activity in porcine hepatocytes exposed to AAV2 or AAV9 CMV-Luc vectors. Cells were infected with AAV vectors for 8 hours, virus was then removed, and cells were treated with 0, 2, or 20 nM meayamycin B. Cells were harvested 48 hours p.i. for the luciferase assay.
as §1

Assay [7] concerns cancer cell lines and clinically relevant cell types, including pancreatic islets and hepatocytes. The assay is described as follows: Summary statement: AAV vector transduction of cancer cell lines and clinically relevant cell types. It is filed as cell-based. The note with it: summary over cell types. The source says: Thus, genetic and/or pharmacological inhibition of U2 snRNP can be used to increase AAV vector transduction, which allows for efficient AAV vector gene therapy with reduced vector doses.

Where [8] appears, read: HeLa, 5 nM, drug 3 hours p.i., washed 1, 2 or 3 days after, luciferase at 3 days p.i.

The structures appear in SMILES notation. Read-outs that look alike come from different tables or passages of the source.

As for `CC(/C=C/[C@H]1OC(C)(C)C[C@@]2(CO2)[C@@H]1O)=C\C[C@@H]1O[C@H](C)[C@H](NC(=O)/C=C\[C@H](C)OC(=O)N2CCOCC2)C[C@@H]1C` [meayamycin B], the “increase in relative luciferase activity” value with HeLa cells [1] (HeLa cells pre-treated at increasing dose 3 hours before AAV9 vector infection) is reported as “up to 49 fold”; with HeLa cells [1] (HeLa, 20 nM, treated 9 hours post AAV9 vector infection) it was 464 fold. Moreover, the figures for the “increase in AAV2 vector transduction (luciferase)” value (with HeLa cells [1] (setting [8]); in assay [6]) were “up to 380 fold” and ≤ 18 fold, respectively. Also, the “increase in AAV9 vector transduction (luciferase)” value was ≤ 359 fold with HeLa cells [1] (setting [8]) and “up to 57 fold” in assay [6]. Besides, in the assay on HeLa cells [1] (HeLa, AAV2 and AAV9, drug added either 24 or 48 hours p.i.), the “effects on AAV vector transduction, late drug addition” value was “impaired”. Moreover, the “effect of washout on AAV vector transduction enhancement” value with HeLa cells [1] (HeLa, AAV2 and AAV9, washout for 48 hours after 3-24 hours of treatment) is “did not strongly compromise its effects on AAV vector transduction”. Moreover, the “effect on relative luciferase activity” value in the assay on HeLa cells [1] (HeLa, AAV9, 20 nM, treatment at 33 hours p.i.) is “relatively weak effects”. Further, the “transduction by GFP-expressing vectors (number and fluorescent intensity of GFP-positive cells)” value in the assay with HeLa cells [2] was “enhanced the transduction by both single-stranded and self-complementary AAV vectors”. Moreover, the “GFP expressing cells in islets vs control islets” value in assay [3] was “increased numbers of GFP expressing cells”. Also, the “increase in AAV2 transduction (luciferase expression)” value in assay [4] is ≤ 24 fold. The “increase in AAV9 transduction (luciferase expression)” value in assay [4] was “up to 44 fold”. The “vector transduction (luciferase)” value in assay [5] (AAV2 CMV-Luc, 2 nM at 3 hours post infection for 3 days) is on record as “did not strongly improve vector transduction”. Besides, in assay [5] (AAV2 CMV-Luc, 10 nM at 3 hours post infection for 3 days), the “increase in luciferase expression” value was determined as 72 fold. Besides, the GFP expression entry in assay [5] (scAAV9 CMV-GFP, 10 nM, 5 days p.i.) is on record as “notable increase in GFP expression”. In addition, in assay [7], the “increase in vector transduction” value is “up to 1000 fold”.
